In patent US20080139525A1, “ANTIOXIDANT THERAPIES” (The Brigham and Women's Hospital, Inc., priority 2006, published 2008):

Tests used:
rat hearts = assay: No-flow ischemia-reperfusion of hearts after 2 weeks of Se supplementation (Example 2); assay type: in vivo; conditions: 23 μM M40403 in perfusate with sodium selenite 50 μg/kg/day for 2 weeks; compared to M40403 without sodium selenite
Experimental: Hearts were isolated from rats and perfused in the Langendorff mode as previously described (Jain et al., Am J Physiol. 2001; 280:H569-H575; Lim et al., Am J Physiol. 1999; 277:H2083-H2090). Briefly, animals were injected intraperitoneally with heparin (10,000 U/kg) and anesthetized with a mixture of ketamine (150 mg/kg) and xylazine (15 mg/kg). The thorax was rapidly opened and the heart excised and arrested in ice-cold saline. A short perfusion cannula was inserted into the aortic root to initiate retrograde perfusion. The hearts were perfused with Krebs-Henseleit buffer (in mmol/L: NaCl 118, KCl 4.7, CaCl2 1.8, KH2PO4 1.2, MgSO4 1.2, NaHCO3 24.0, and glucose 10.0) equilibrated with 95% O2/5% CO2 to yield a pH of 7.4. A thin cannula was pierced through the apex of the left ventricle (LV) to vent thebesian drainage. A ventricular balloon, composed of polyvinyl chloride film and connected to a polyethylene tube, was inserted into the LV through the mitral valve via an incision in the left atrium. […]
Hearts were treated first for 2 weeks with or without Se supplementation (as sodium selenite, 50 μg/kg/day), after which they were subjected to no-flow ischemia-reperfusion with 23 μM of the SOD mimetic M40403 added to the perfusate. EDP and DevP (as measures of ventricular performance) were monitored over time following restoration of perfusion. […]

[1] = system: isolated rat hearts (wild-type and GPx-TG); assay: Langendorff isolated heart, zero-flow ischemia followed by reperfusion (Example 1); assay type: ex vivo; conditions: compared with vehicle control
Experimental: Hearts were isolated from rats and perfused in the Langendorff mode as previously described (Jain et al., Am J Physiol. 2001; 280:H569-H575; Lim et al., Am J Physiol. 1999; 277:H2083-H2090). Briefly, animals were injected intraperitoneally with heparin (10,000 U/kg) and anesthetized with a mixture of ketamine (150 mg/kg) and xylazine (15 mg/kg). The thorax was rapidly opened and the heart excised and arrested in ice-cold saline. A short perfusion cannula was inserted into the aortic root to initiate retrograde perfusion. The hearts were perfused with Krebs-Henseleit buffer (in mmol/L: NaCl 118, KCl 4.7, CaCl2 1.8, KH2PO4 1.2, MgSO4 1.2, NaHCO3 24.0, and glucose 10.0) equilibrated with 95% O2/5% CO2 to yield a pH of 7.4. A thin cannula was pierced through the apex of the left ventricle (LV) to vent thebesian drainage. A ventricular balloon, composed of polyvinyl chloride film and connected to a polyethylene tube, was inserted into the LV through the mitral valve via an incision in the left atrium. The balloon was connected to a pressure transducer (Statham P23Db, Gould) for recording of LV pressures. The balloon was inflated with saline to adjust the end-diastolic pressure (EDP) to 10 mm Hg, and the balloon volume was held constant for the duration of the experiment. Hearts were paced (Grass Instruments) with platinum wires placed on the epicardial surface of the right ventricle. Coronary perfusion pressure was held constant during the duration of the experiment at 80 mm Hg. An inline ultrasonic flow probe (Transonics Systems Inc) was positioned immediately above the aortic cannula to measure coronary flow. Systolic pressure, EDP, and coronary flow were collected online by use of a commercially available data acquisition system (PowerLab ADInstruments). Developed pressure (DevP) (the difference between systolic and diastolic pressures) and EDP were used as indices of contractile and diastolic function, respectively.
During 20 minutes of baseline stabilization, all hearts were maintained at 37° C. and paced at 7 Hz. Hearts were subsequently subjected to 15 minutes of zero-flow ischemia followed by 30 minutes of reperfusion with or without a reperfusion solution containing 23 μM of the SOD mimetic M40403. The EDP was higher and DevP was lower in the wild-type (WT) rats with this treatment compared with vehicle control.

[2] = GPx-TG (glutathione peroxidase-1 transgene) with added dietary selenium, 23 μM M40403 in reperfusion solution
[3] = wild-type (WT) rats, 15 min zero-flow ischemia, 30 min reperfusion with 23 μM M40403

For [Cl-].[Cl-].[Mn+2].c1cc2nc(c1)CN[C@@H]1CCCC[C@H]1NCCN[C@@H]1CCCC[C@H]1NC2 [M40403], the “end-diastolic pressure (EDP)” value (rat hearts) was “improved EDP (i.e., lower EDP)”, the “developed pressure (DevP)” value [1, 2] was “no change” and the “end-diastolic pressure (EDP)” value [1, 2] was “improved EDP (i.e., lower EDP)”. For the same compound, the “developed pressure (DevP)” value [1, 3] was “lower” and the “end-diastolic pressure (EDP)” value [1, 3] was “higher”.
